One experiment addresses T1, PI3K alpha (Homo sapiens, UniProt P42336).
T1 construct: p85(iSH2) fusion partner (see partner chain) (N); His tag (C); made in house; host or cells: baculovirus; Tn5 (Trichoplusia ni) or TiniPro insect cells
Put plainly: PI3K alpha kinase assay (Kinase-Glo luminescence). It is filed as biochemical. An outline of the steps: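 Enzyme 10 nM PI3Kα EMV B1075; ATP 1 μM; PI 10 μg/mL; Tris-HCl pH 7.5 10 mM, MgCl2 3 mM, NaCl 50 mM, CHAPS 0.05%, DTT 1 mM; 60 min RT; Kinase-Glo luminescence; 4-parameter IC50 fit, 8 concentrations, single points.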
(In general: In Kinase-Glo more light means more ATP remaining.)

In experiment [1] the test system is PKB Ser473 phosphorylation in Rat1-myr-HA-p110 delta cells. As to the kind of experiment: Reverse protein array assay, PKB Ser473 phosphorylation in Rat1-myr-p110 delta cells. It is filed as cell-based. The settings on record: read-out: p-PKB IC50. An outline of the steps:
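Rat1 cells expressing myristoylated HA-tagged p110 alpha, beta or delta were plated for at least 20 h, then exposed to 8-step serial compound dilutions (0.2% DMSO final) for 30 min at 37 °C. Lysates were spotted at four dilutions on protein microarrays, and relative fluorescence intensity of phospho-Ser473 PKB was calculated.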

The next experiment addresses T2, PI3K delta (Homo sapiens, UniProt O00329).
T2 construct: for the full-length p110-d subunit are generated and fused by overlapping PCR; p85(iSH2) fusion partner (see partner chain) (N); His tag (C); made in house; host or cells: baculovirus; Tn5 (Trichoplusia ni) or TiniPro insect cells
Put plainly: PI3K delta kinase assay (Kinase-Glo luminescence). The class given is biochemical. An outline of the steps:
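Lipid kinase activity of a His-tagged p110δ full-length/p85 iSH2 fusion (10 nM) toward bovine liver phosphatidylinositol (10 μg/mL) at 1 μM ATP, pH 7.5, 60 min, room temperature. ATP consumption is quantified by luciferase-based luminescence. Four-parameter logistic fitting gives IC50.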

Among the data in patent US20140005163A1 (NOVARTIS AG, priority 2010, published 2014) are IC50 values, retold here.

SMILES strings stand for the structures.

T2 sequence (O00329 with tags, fused parts or gaps limits assumed): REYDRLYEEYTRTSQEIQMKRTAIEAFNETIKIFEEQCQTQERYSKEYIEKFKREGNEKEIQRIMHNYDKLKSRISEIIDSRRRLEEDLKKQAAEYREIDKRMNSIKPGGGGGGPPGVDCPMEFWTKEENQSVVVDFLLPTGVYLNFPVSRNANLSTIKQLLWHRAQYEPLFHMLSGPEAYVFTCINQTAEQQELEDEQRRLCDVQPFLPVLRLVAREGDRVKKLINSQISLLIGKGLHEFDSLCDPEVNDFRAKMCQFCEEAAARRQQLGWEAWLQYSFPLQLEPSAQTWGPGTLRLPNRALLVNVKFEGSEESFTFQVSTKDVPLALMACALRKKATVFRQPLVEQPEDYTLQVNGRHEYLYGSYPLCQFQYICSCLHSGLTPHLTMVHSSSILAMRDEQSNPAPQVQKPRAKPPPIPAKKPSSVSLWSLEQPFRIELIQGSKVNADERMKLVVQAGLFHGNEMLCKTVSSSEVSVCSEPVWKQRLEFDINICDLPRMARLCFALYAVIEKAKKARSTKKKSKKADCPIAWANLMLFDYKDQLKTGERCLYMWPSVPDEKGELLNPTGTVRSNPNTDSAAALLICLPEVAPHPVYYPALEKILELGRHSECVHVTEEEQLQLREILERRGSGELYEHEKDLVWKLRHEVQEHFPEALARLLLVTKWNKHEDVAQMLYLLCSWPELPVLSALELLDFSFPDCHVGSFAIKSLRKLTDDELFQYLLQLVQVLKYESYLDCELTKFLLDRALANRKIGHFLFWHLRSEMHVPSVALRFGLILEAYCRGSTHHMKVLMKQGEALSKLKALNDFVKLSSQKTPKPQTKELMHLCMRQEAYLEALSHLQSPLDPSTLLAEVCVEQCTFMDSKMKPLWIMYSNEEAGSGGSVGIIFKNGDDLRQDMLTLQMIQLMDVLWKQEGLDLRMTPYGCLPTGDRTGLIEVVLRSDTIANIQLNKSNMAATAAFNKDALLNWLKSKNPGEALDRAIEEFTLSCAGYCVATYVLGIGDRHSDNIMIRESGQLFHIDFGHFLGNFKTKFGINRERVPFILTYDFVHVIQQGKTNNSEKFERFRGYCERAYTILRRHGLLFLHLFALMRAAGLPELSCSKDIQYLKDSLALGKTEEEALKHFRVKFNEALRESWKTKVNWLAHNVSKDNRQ
T1 sequence (P42336 with tags, fused parts or gaps limits assumed): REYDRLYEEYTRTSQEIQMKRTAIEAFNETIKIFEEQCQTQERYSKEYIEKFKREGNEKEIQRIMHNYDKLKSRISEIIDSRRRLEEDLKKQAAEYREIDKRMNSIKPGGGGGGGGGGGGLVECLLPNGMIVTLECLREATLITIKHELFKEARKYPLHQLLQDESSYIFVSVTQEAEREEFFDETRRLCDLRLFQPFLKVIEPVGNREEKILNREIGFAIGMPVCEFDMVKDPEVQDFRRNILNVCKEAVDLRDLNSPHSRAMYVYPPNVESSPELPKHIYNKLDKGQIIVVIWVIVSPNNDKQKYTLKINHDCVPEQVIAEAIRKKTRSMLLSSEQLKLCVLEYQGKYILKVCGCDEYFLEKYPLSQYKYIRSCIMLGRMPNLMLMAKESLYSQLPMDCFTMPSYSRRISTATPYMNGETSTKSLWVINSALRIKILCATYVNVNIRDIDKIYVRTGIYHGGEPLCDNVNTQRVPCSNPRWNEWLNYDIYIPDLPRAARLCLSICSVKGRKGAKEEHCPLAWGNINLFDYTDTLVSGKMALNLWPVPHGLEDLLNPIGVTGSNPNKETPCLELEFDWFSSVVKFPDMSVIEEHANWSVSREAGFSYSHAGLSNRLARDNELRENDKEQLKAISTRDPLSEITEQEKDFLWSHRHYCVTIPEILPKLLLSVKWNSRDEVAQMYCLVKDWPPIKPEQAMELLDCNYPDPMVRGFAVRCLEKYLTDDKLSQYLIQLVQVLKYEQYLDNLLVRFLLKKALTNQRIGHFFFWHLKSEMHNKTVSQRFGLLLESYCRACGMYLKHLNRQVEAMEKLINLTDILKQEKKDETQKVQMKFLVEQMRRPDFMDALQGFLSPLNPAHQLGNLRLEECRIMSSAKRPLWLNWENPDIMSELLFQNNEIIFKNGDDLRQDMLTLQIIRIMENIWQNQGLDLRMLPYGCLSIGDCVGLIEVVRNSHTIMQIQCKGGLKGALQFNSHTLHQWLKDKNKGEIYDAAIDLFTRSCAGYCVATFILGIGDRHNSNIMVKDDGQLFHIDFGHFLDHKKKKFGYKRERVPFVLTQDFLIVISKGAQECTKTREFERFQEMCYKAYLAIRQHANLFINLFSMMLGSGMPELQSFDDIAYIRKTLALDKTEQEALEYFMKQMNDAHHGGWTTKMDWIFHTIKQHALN

As usually defined, the IC50 is the concentration that gives 50% inhibition. Regarding `CCn1cc(-n2c(=O)n(C)c3cnc4ccc(-c5ccc(OC)c(OC)c5)nc4c32)c(C)n1` [Example 254, 8-(3,4-Dimethoxy-phenyl)-1-(1-ethyl-3-methyl-1H-pyrazol-4-yl)-3-methyl-1,3-dihydro-1,3,5,9-tetraaza-cyclopenta[a]naphthalen-2-one], the values for the concentration for half-maximal inhibition (IC50) (at PI3K alpha; in experiment [1]; at PI3K delta) were 11 nM, 116 nM and 26 nM, respectively.
